Literature values, collected in patent EP3125915B1, “PROCESS FOR PREPARING A POWDERED MIXTURE OF BORNEOL AND PLANT PROTEINS TO BE USED AS DIETARY OR FOOD SUPPLEMENT, AND RELATED DIETARY OR FOOD SUPPLEMENT” (priority 2014, dated 2015).
Where two headings read alike, the source gives them in different places. Each block holds one molecule with its values, some of them ahead of it.

Experiments:
[1] = with borneol
[2] = not given; remark: listed apart in the source
[3] = with borneol; remark: listed apart in the source
[4] = not given; remark: listed apart in the source
[5] = with borneol; remark: listed apart in the source
[6] = with borneol; remark: listed apart in the source

SMILES: OCc1ccc(O[C@@H]2O[C@H](CO)[C@@H](O)[C@H](O)[C@H]2O)cc1 [gastrodin]
peak time of gastrodin in the plasma ([2]; administration of gastrodin alone): 30 min
peak time of gastrodin in the plasma ([2]; gastrodin co-administrated with borneol): 5 to 15 min
bioavailability of gastrodigenin in the brain was increased by ([2]; gastrodin co-administrated with borneol, compared with gastrodin alone): 33.6-108.8%

SMILES: COC(=O)C1=CO[C@@H](O[C@@H]2O[C@H](CO)[C@@H](O)[C@H](O)[C@H]2O)[C@@H]2C(CO)=CC[C@H]12 [geniposide]
permeability of geniposide ([3]; cortex and striatum regions): no change
permeability of geniposide ([3]; hippocampus and hypothalamus regions): increase
brain delivery of geniposide ([4]; borneol high dose increasing from 2.0 g/kg to 4.0 g/kg): decreased
delivery of geniposide in the rat brain ([4]; borneol low dose range of 0.05-2.0 g/kg): increases

SMILES: Cc1ncc(CNC(=O)N(CCCl)N=O)c(N)n1 [nimustine]
bioavailability of nimustine in the CSF [5]: increase

The remaining lines, values ahead:

oral bioavailability of TMPP in brain tissue, times increased than that without borneol (oral borneol 15 mg kg^-1): 1.12 times
oral bioavailability of TMPP in mice plasma, times increased than that without borneol (oral borneol 15 mg kg^-1): 1.52 times
oral bioavailability of TMPP in brain tissue, times increased than that without borneol (oral borneol 30 mg kg^-1): 1.62 times
oral bioavailability of TMPP in mice plasma, times increased than that without borneol (oral borneol 30 mg kg^-1): 2.21 times
oral bioavailability of TMPP in brain tissue, times increased than that without borneol (oral borneol 90 mg kg^-1): 1.93 times
oral bioavailability of TMPP in mice plasma, times increased than that without borneol (oral borneol 90 mg kg^-1): 2.95 times
SMILES: Cc1nc(C)c(C)nc1C.O=P(O)(O)O [TMPP, tetramethylpyrazine phosphate]

bioavailability of carbamazepine [1]: significantly improve
SMILES: NC(=O)N1c2ccccc2C=Cc2ccccc21 [carbamazepine]

absorption of quercetin in mice brain tissue [6]: improves
SMILES: O=c1c(O)c(-c2ccc(O)c(O)c2)oc2cc(O)cc(O)c12 [quercetin]
